For data set [1] the following is noted: mouse, in vivo, iv; for injected dose in the blood: 60 min.
The nature of data set [2]: Biodistribution in mice after intravenous injection (organ activities by scintillation counter). Conditions: i.v., 60 minutes.

Like-named read-outs stand apart in the source and are kept apart here.

Turning to “cobalt-57 chelate of N-[N'-(2,6-dimethylphenyl) carbamoylmethyl] iminodiacetic acid [Example 11]”, in data set [1] (30 min), the “injected dose in the intestines” value amounted to 12% and the “injected dose in the liver” value is recorded as 28%.
For “gallium-67 chelate of 8-hydroxyquinoline [Example 9]”, in data set [2], the “injected dose in the blood” value turned out to be 20%, the “injected dose in the intestines” value is on record as 13% and the “injected dose in the liver” value is 25%.
Turning to “gallium-67 chelate of methyliminodiacetic acid [Example 15]”, the “route of elimination / renal clearance” value in data set [1] is reported as “rapid renal clearance”.
Consider “technetium-99m chelate of 10-carboxydecyliminodiacetic acid [Example 12]”, for which, in data set [1], the blood clearance result was “rapid blood clearance”; the “persistent activity in organs” value was “persistent activity noted in the liver and lungs”; the “route of elimination / renal clearance” value was “eliminated through both kidneys and liver”; the “injected dose in the blood” value is “less than 6%”.
“technetium-99m chelate of N-(o-bromobenzyl) iminodiacetic acid [Example 13]”: in data set [1], the blood clearance entry is given as “rapid blood clearance” and the “injected dose in the blood” value is listed as “less than 5%”. For the same substance, in data set [1] (30 min), the “injected dose in the intestines” value is reported as 30%.
In the case of “technetium-99m chelate of nitrilotriacetic acid [Example 10]”, in data set [1], the “injected dose found in the liver and intestines” value is given as “less than 5%”; the “route of elimination / renal clearance” value is recorded as “rapidly clear through the kidneys to urine”. The same substance displayed an eliminated in urine in data set [1] (1 h) of 40%.

(Values after patent USRE31463E, “Radiopharmaceutical chelates and method of external imaging” (priority 1980, dated 1983).)
